Experimental data reported in US5914236A, “PCT-65 serotonin receptor” (United States of America, priority 1995, dated 1999).

Legend:
[1] = target: T1, PCT-65 receptor (Rattus norvegicus, UniProt P32305); assay: [3H]-5-HT competition binding to PCT-65 receptor in membranes of transfected COS-7 cells; details: competing with [3H]-5-HT (1 nM), COS-7 membranes, 37 °C; geometric mean ± SEM (n=3)
T1 construct: expressed in transfected cells; host or cells: COS-7 cells (transient, calcium phosphate, pSRα-65)
Protocol: (§1) This plasmid construct (pSRα-65) was introduced into COS-7 cells by calcium phosphate-mediated transfection.
Specifically, transfected cells were scraped into PBS with 5 mM EDTA, spun, polytroned, spun, suspended in 100 mM Tris, 20 mM MgSO4, 1 mM EDTA, pH7.7. 0.5 ml of this solution containing 10-25 μg protein was added to 0.5 ml of a 2 mM ascorbic acid solution containing the ligand and drugs and incubated for 30 min at 37° C. Filtration was performed on GF/C paper (0.1% PEI solution pre-treatment) with a 10 ml rinse.

[2] = target: T1, PCT-65 receptor; assay: [3H]-LSD competition binding to PCT-65 receptor in membranes of transfected COS-7 cells; details: for Ki: competing with [3H]-LSD (1.5-2.2 nM), COS-7 membranes, pH 7.4, 37 °C, 60 min, geometric mean ± SEM (n=3)
Source text: as §1

[3] = target: T1, PCT-65 receptor; assay: Competition binding to PCT-65 receptor (radioligand not specified); details: for affinity for PCT-65 (in words): expressed in mammalian cells (COS-7)
[4] = test system: 5HT1A receptors; details: background; cited from earlier work
[5] = radioligand not given, read-out: Ki (compounds not in Table 1)

T1 sequence (P32305 45-448): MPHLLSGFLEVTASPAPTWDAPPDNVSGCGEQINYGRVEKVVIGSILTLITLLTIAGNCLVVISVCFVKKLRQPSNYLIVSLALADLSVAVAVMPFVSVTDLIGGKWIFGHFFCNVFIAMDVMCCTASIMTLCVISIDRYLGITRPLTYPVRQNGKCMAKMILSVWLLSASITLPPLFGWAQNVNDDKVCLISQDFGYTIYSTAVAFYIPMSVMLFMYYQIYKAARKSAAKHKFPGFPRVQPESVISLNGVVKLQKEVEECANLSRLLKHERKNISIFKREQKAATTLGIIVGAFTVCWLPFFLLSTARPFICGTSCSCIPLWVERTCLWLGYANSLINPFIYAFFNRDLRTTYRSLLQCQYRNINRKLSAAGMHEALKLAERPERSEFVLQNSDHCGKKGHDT

Structure (SMILES) | Ki [1] [nM] | Ki [2] [nM] | other results
c1ccc2c(N3CCNCC3)cccc2c1 [1(1-Napthyl)piperazine] | 18.4 ± 0.77 | 33.8 ± 1.68 | –
COc1ccccc1N1CCNCC1 [2-MPP] | 125 ± 8.4 | 244 ± 16.5 | –
NCCc1c[nH]c2ccc(C(N)=O)cc12 [5-Carboxamidotryptamine] | 0.16 ± 0.05 | 0.33 ± 0.01 | –
NCCc1c[nH]c2ccc(O)cc12 [5-Hydroxytryptamine, 5-hydroxytryptamine] | – | – | affinity for PCT-65 (in words) [3]: high affinity
COc1ccc2[nH]cc(CCN(C)C)c2c1 [5-Methoxy-N,N-dimethytryptamine] | 8.26 ± 0.73 | 20.9 ± 0.86 | –
CCCN(CCC)C1CCc2cccc(O)c2C1 (stereo not drawn) [8-OH-DPAT] | 35 ± 5.62 | 35.4 ± 5.24 | affinity for PCT-65 (in words) [3]: relatively low affinity
CN(C)CCC=C1c2ccccc2CCc2ccccc21 [Amitriptyline] | 92.8 ± 15.8 | 124 ± 13.4 | Ki [3]: < 100 nM; affinity for PCT-65 (in words) [3]: high affinity
CCn1c(=O)n(C(=O)NC2CC3CCC(C2)N3C)c2ccccc21 (stereo not drawn) [BIMU1] | – | – | Ki [3, 5]: > 1300 nM
CC(C)n1c(=O)n(C(=O)NC2CC3CCC(C2)N3C)c2ccccc21 (stereo not drawn) [BIMU8] | – | – | Ki [3]: > 1300 nM
COc1cc(N)c(Cl)cc1C(=O)NC1CCN2CCCC1C2 (stereo not drawn) [BRL24294] | – | – | Ki [3, 5]: > 1300 nM
CN1C2CCCC1CC(NC(=O)c1nn(C)c3ccccc13)C2 (stereo not drawn) [BRL43694] | – | – | Ki [3, 5]: > 1300 nM
CC(C)C[C@H]1C(=O)N2CCC[C@H]2[C@]2(O)O[C@](NC(=O)[C@@H]3C=C4c5cccc6[nH]c(Br)c(c56)C[C@H]4N(C)C3)(C(C)C)C(=O)N12 [Bromocriptine] | 48.8 ± 7.9 | 10.7 ± 0.47 | –
CN(C)CCCC1(c2ccc(F)cc2)OCc2cc(C#N)ccc21 (stereo not drawn) [Citalopram] | – | – | Ki [3]: > 1300 nM
CN1C2CCC1CC(NC(=O)n1c(=O)[nH]c3ccccc31)C2 (stereo not drawn) [DAU6215] | – | – | Ki [3, 5]: > 1300 nM
CNCCCN1c2ccccc2CCc2ccccc21 [Desipramine] | – | – | Ki [3]: > 1300 nM
NCCc1ccc(O)c(O)c1 [Dopamine] | – | – | Ki [3, 5]: > 1300 nM
CCNC(C)Cc1cccc(C(F)(F)F)c1 (stereo not drawn) [Fenflurmine] | – | – | Ki [3]: > 1300 nM
NCCc1c[nH]cn1 [Histamine] | – | – | Ki [3, 5]: > 1300 nM
c1ccc2c(c1)OCC(C1=NCCN1)O2 (stereo not drawn) [Idazoxan] | – | – | Ki [3, 5]: > 1300 nM
O=C(c1ccc(F)cc1)C1CCN(CCn2c(=O)[nH]c3ccccc3c2=O)CC1 [Ketanserin] | 265 ± 32.1 | 207 ± 19.6 | –
CCN(CC)C(=O)[C@@H]1C=C2c3cccc4[nH]cc(c34)C[C@H]2N(C)C1 [LSD] | – | – | affinity for PCT-65 (in words) [3]: relatively high affinity

Structure (SMILES) | Ki [1] [nM] | Ki [2] [nM] | other results
CN1C2CCC1CC(NC(=O)c1nn(C)c3ccccc13)C2 (stereo not drawn) [LY-278584] | – | – | Ki [3]: > 1300 nM
CN1CCN(C2=Nc3ccccc3Oc3ccc(Cl)cc32)CC1 [Loxapine] | 133 ± 36.1 | 172 ± 7.8 | affinity for PCT-65 (in words) [3]: low affinity; affinity for PCT-65 (in words) ([3]; listed as loxipine): high affinity
CN1[C@@H]2CC[C@H]1C[C@@H](OC(=O)c1cc(Cl)cc(Cl)c1)C2 [MDL7222] | – | – | Ki [3, 5]: > 1300 nM
COc1ccc2[nH]cc(CCNC(C)=O)c2c1 [Melotonin] | – | – | Ki [3]: > 1300 nM
CN1C[C@@H](NS(=O)(=O)N(C)C)C[C@@H]2c3cccc4c3c(cn4C)C[C@H]21 [Mesulergine] | 21.1 ± 2.19 | 7.13 ± 0.39 | affinity for PCT-65 (in words) [3]: relatively high affinity
CN1C[C@H](CNC(=O)OCc2ccccc2)C[C@@H]2c3cccc4c3c(cn4C)C[C@H]21 [Metergoline] | 6.21 ± 1 | 2.04 ± 0.15 | potency in competition with [3H]-LSD compared with [3H]-5-HT (in words) ([2]; relative to competition with [3H]-5-HT): somewhat greater potency
CC[C@@H](CO)NC(=O)[C@@H]1C=C2c3cccc4c3c(cn4C)C[C@H]2N(C)C1 [Methysergide] | 13.4 ± 0.8 | 12.6 ± 0.84 | –
COc1ccccc1N1CCN(CCCCN2C(=O)c3ccccc3C2=O)CC1 [NAN-190] | – | – | Ki [3, 5]: > 1300 nM
NCC(O)c1ccc(O)cc1 (stereo not drawn) [Octopamine] | – | – | Ki [3]: > 1300 nM
CCCN1C[C@H](CSC)C[C@@H]2c3cccc4[nH]cc(c34)C[C@H]21 [Pergolide] | 1.01 ± 0.03 | 4.78 ± 0.18 | affinity for PCT-65 (in words) [3]: relatively high affinity
CC(C)NCC(O)COc1cccc2[nH]ccc12 (stereo not drawn) [Pindolol] | – | – | Ki [3]: > 1300 nM
c1ccc2nc(N3CCNCC3)ccc2c1 [Quipazine] | – | – | Ki [3, 5]: > 1300 nM
Cc1nc2sccn2c(=O)c1CCN1CCC(=C(c2ccc(F)cc2)c2ccc(F)cc2)CC1 [Ritanserin] | 15 ± 3.4 | 21.7 ± 2.1 | –
CNS(=O)(=O)Cc1ccc2[nH]cc(CCN(C)C)c2c1 [Sumatriptan] | 251 ± 36.1 | – | –
FC(F)(F)c1cccc(N2CCNCC2)c1 [TFMPP] | 236 ± 5.5 | 533 ± 33 | –
NCCc1c[nH]c2ccccc12 [Tryptamine] | 16.4 ± 1.01 | 32.9 ± 0.76 | –
COc1cc(N)c(Cl)cc1C(=O)NC1CN2CCC1CC2 (stereo not drawn) [Zacopride] | – | – | Ki [3, 5]: > 1300 nM
CC1(C)CC(=O)N(CCCCN2CCN(c3ncccn3)CC2)C(=O)C1 [gepirone] | – | – | affinity for 5HT1A receptors in the brain (in words) [4]: high affinities
O=C1c2ccccc2S(=O)(=O)N1CCCCN1CCN(c2ncccn2)CC1 [ipsapirone] | – | – | affinity for 5HT1A receptors in the brain (in words) [4]: high affinities
Clc1cccc(N2CCNCC2)c1 [mCPP] | 256 ± 9.9 | 352 ± 54.9 | –
